Drawing on PMC6594423, “Cobimetinib and trametinib inhibit platelet MEK but do not cause platelet dysfunction” (Platelets, 2018), this text covers log10 IC50 (M) and IC50 for 2 molecules.

The test system of this assay is T1, MEK1 (platelet MEK; MEK1/2 not resolved).
T1 construct: gene MAP2K1
The experiment in a line: western blot of ERK1/[…] phosphorylation (MEK substrate) in CRP- or TRAP-6-stimulated washed human platelets. In kind it is cell-based.

Regarding `O=C(c1ccc(F)c(F)c1Nc1ccc(I)cc1F)N1CC(O)([C@@H]2CCCCN2)C1` [Cobimetinib], the log10 IC50 (M) was -9.5.
As for `CC(=O)Nc1cccc(-n2c(=O)n(C3CC3)c(=O)c3c(Nc4ccc(I)cc4F)n(C)c(=O)c(C)c32)c1` [Trametinib], the IC50 is on record as −10.9 ± 0.43 (logIC50) log M.
